Assay: gradient 5% acetonitrile 3 min, to 50% in 2 min, to 85% in 15 min, held 3 min, 100 µL/min
Conditions: column: Zorbax Extend-C18 2.1 x 50 mm; eluents: water / acetonitrile, 0.1% formic acid
In short: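 Retention times of pure standards were taken from adduct peaks that were selected by computer and manually inspected. Over 3 months, mixtures of ~100 molecules were run by HPLC–quadrupole time-of-flight mass spectrometry in positive and negative ionization mode. The Zorbax Extend-C18 column (2.1 × 50 mm, 1.8 μm) ran at 100 μL/min in water and acetonitrile, each containing 0.1% formic acid, with 40 μL dead volume and 900 μL dwell volume.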

Compound | RP-LC retention time [s]
CCCCn1cc(S(=O)(=O)NCc2ccc(F)cc2Cl)c2cccnc21 | 1030
COc1ccc(-c2csc(Cc3nc(-c4ccc(Cl)cc4)no3)n2)cc1 | 1290
CC(C)C(=O)N1[C@H]2CC[C@@H]1c1cnc(-c3ccc(F)cc3)nc1C2 | 871
CCCCNc1c(C(=O)OC)c(=O)[nH]c2c(Cl)cccc12 | 783
Cc1nc(Nc2ccc(F)cn2)sc1C(=O)NC(C)c1ccc(F)cc1 (stereo not drawn) | 887
COc1ccc(-c2nc3cnccn3c2Nc2cccc(C(=O)O)c2)cc1 | 894
COc1cccc(-c2cc(C(=O)N3CCOCC3)[nH]n2)c1 | 658
O=C(CNC(=O)C(c1ccccc1)c1ccccc1)NCC(=O)N1CCCc2ccccc21 | 875
CCCCn1cc(S(=O)(=O)N2CCN(c3cccc(Cl)c3)CC2)c2cccnc21 | 1250
Cc1cccc(-c2noc(-c3nn(-c4cccc(F)c4)ccc3=O)n2)c1 | 928
CCOc1ccc(C(=O)N2CCC3(CC2)C(=O)N(C)c2ccccc23)cc1OCC | 842
O=C(NCc1ccc2c(c1)OCO2)c1ccc(-c2cccs2)nc1 | 863
CN(C)CCNC(=O)c1ccc(CS(=O)Cc2ccc(Cl)cc2)o1 (stereo not drawn) | 604
COc1ccc(Cl)cc1NC(=O)c1n[nH]c2ccccc12 | 1010
Cc1cc(C)c(C(=O)N2CCC(CC(=O)NCc3cccc(Cl)c3)CC2)[nH]1 | 804
CC(C)n1cnc2cc(CNC(=O)c3ccccn3)ccc21 | 590
COCCN1C(=O)c2ccccc2C(C(=O)NCc2ccco2)C1c1ccc(F)cc1 (stereo not drawn) | 822
Cc1ccc(-c2csc(NC(=O)c3nc4ccccc4s3)n2)o1 | 1120
COC(=O)C1=CN(c2cccc(SC)c2)c2cc(F)ccc2S1(=O)=O | 925

Compound | RP-LC retention time [s]
CCCc1c(C(=O)O)nnn1-c1ccc(Cl)cc1 | 778
COc1ccc(Cn2nc3ccc(S(=O)(=O)N4CCCCC4)cn3c2=O)cc1 | 900
COc1cccc(-c2nc(C3CCN(S(=O)(=O)c4ccccc4F)CC3)no2)c1 | 1110
COc1cc(NC(=O)C2CCN(C(=O)c3ncn4c3COC(c3ccccc3)C4)CC2)cc(OC)c1 (stereo not drawn) | 846
Cc1ccc(-c2nnc(Cc3nc(-c4ccccc4F)no3)o2)cc1C | 1040
O=C(NCCC1CCN(S(=O)(=O)c2ccc(F)cc2)CC1)Nc1ccc(F)cc1 | 909
CC1CCN(S(=O)(=O)c2nn(C)cc2C(=O)NCc2cc(F)cc(F)c2)CC1 | 969
CCn1c(C)c(-c2nc(C3CC3)no2)c(S(=O)(=O)NCC(C)C)c1C | 930
O=C(NCCc1cnc[nH]1)c1nc(Nc2ccc(F)cc2)c2ccccc2n1 | 589
COC1CN(c2cccc(F)c2)C12CCN(S(=O)(=O)c1cccc3cccnc13)CC2 (stereo not drawn) | 1110
COc1ccc(CC(=O)Nc2ccc(-c3cn4ccsc4n3)cc2)cc1OC | 604
COCCNc1c(-c2ccccc2)nc2sc(C(=O)N(C)C)c(C)n12 | 643
COc1ccc(CCNC(=O)c2cc3c(=O)n(C)c(=O)n(C)c3s2)cc1OC | 668
Cc1ccccc1CN1C[C@@H]2C(=O)N(CCc3ccccc3)C(=O)[C@@H]2C1 | 829
CCc1ccccc1NC(=O)Cn1c(C)nc2c(sc3nc(-c4ccccc4)ccc32)c1=O | 1080
CCCCNC(=O)C1CCC(=O)N(c2cc(OC)c(OC)c(OC)c2)C1c1ccc(OC)cc1 (stereo not drawn) | 709
CN1C(=O)c2cccc(NC(=O)c3ccc(S(=O)(=O)N4CCOCC4)cc3)c2C1=O | 813
Cc1ccc(Nc2nc(C(=O)NCc3cccnc3)nc3ccccc23)cc1 | 609
CCNC(=O)c1nc(Nc2ccc(C)cc2)c2ccccc2n1 | 705

Compound | RP-LC retention time [s]
Cc1ccc(NC(=O)Nc2cccc(-c3ccc(N4CCOCC4)nn3)c2)c(C)c1 | 732
Cc1ccc(NC(=O)Cn2nc(N3CCCC(C)C3)c3ccccc3c2=O)cc1C (stereo not drawn) | 1240
COc1cccc(CNC(=O)Cn2c(N(C)Cc3ccccc3)nc(C)cc2=O)c1OC | 660
CCc1ccc(NS(=O)(=O)c2ccc(-c3nnc(C4CCC4)o3)o2)cc1 | 996
COc1ccc(OCc2nc(Cc3nc(-c4cccc(C)c4)oc3C)no2)cc1 | 1160
Cc1ccc2c(c1)NC(=O)c1cc(NC(=O)c3ccno3)ccc1O2 | 719
Cc1ccc(-c2nnc(-c3cccc(S(=O)(=O)Nc4cccnc4)c3)o2)cc1 | 775
Cc1ccc(-c2cn3cccc(C)c3n2)cc1NS(=O)(=O)c1ccc(Br)cc1 | 737
COc1ccccc1-c1csc(NC(=O)c2sc(C)nc2C)n1 | 900
CC(C)Cn1cc(S(=O)(=O)Nc2ccc(Cl)cc2)c2cccnc21 | 988
COc1ccc(NC(=O)N2CC3CCCN3c3ccccc32)cc1 (stereo not drawn) | 985
COC(=O)c1ncn2c1C(=O)N(c1ccccc1C)C(C)(C(=O)NCc1ccccc1)C2 (stereo not drawn) | 715
Cc1ccc(C)c(-c2nc(-c3cccc(-c4ccn[nH]4)c3)no2)c1 | 1190
Cc1noc([C@@H]2CN(Cc3cc(F)ccc3F)C[C@H]2CO)n1 | 576
Cc1cc(NC(=O)C2CCN(S(=O)(=O)c3cn(C)cn3)CC2)ccc1Br | 802
Cc1nnc(NC(=O)CSc2nnc(NC(=O)Nc3cccs3)s2)s1 | 634
COCCN1C(=O)CCc2cc(NC(=O)Cc3ccc(Cl)cc3)ccc21 | 806
COc1ccc2c(c1)C1(CCN(C(=O)NCCc3ccccc3)C1)C(=O)N2 (stereo not drawn) | 750

The remaining lines, values ahead:

RP-LC retention time [s] | Compound
700 | Cn1nc(C(=O)N2CCCN(c3cc(-c4ccccc4)[nH]n3)CC2)c2ccccc21
809 | O=C(CN1C(=O)NC2(CCCCC2)C1=O)Nc1ccc(Cl)cc1F
684 | CC1CCN(CC2CCCCCN2C(=O)Nc2ccc3c(c2)OCCO3)CC1 (stereo not drawn)
865 | O=C(CCc1ccc2[nH]ccc2c1)N1CCN(c2ccc(F)cc2)CC1
832 | Cc1nc(-c2ccc3c(c2)n(CC(=O)N2CCn4c2nc2ccccc24)c(=O)n3C(C)C)no1
747 | Cc1cc(S(=O)(=O)N2CC(Cc3nncn3C3CCCC3)C2)ccc1F
943 | Cc1ccc(NC(=O)CN2C(=O)CCCc3cc(S(=O)(=O)N4CCCC4)ccc32)cc1Cl
603 | O=C(CCCn1c(=O)c2cccn2c2ccc(F)cc21)NCCCN1CCOCC1
625 | O=C(CC1CCN(S(=O)(=O)c2ccccc2)CC1)N1CCN(c2ccccn2)CC1
813 | COc1ccc(NC(=O)NCC23CCC=C2N(CC2CC2)C(=O)CC3)cc1 (stereo not drawn)
1150 | CCCCn1c(=O)c2ccccc2n(Cc2nc(-c3cccc(OCC)c3)no2)c1=O
723 | Cc1oc(CNC(=O)Nc2ccc(Cl)cc2F)nc1C(=O)N1CCCC1
685 | CCCNC(=O)C1CCN(c2ccc(SCC(=O)Nc3ccc(C)c(C)c3)nn2)CC1
673 | Cc1ccc(N2CC(C(=O)NCC(C)(O)C3CC3)CC2=O)cc1C (stereo not drawn)
890 | CC(=O)N1c2ccc(S(=O)(=O)N3CCCCCC3)cc2CC1C(=O)NCc1ccc(F)cc1 (stereo not drawn)
834 | CN1C(=O)c2cc(C(=O)N3CCN(c4ccccc4F)CC3)nn2CC1(C)C(=O)NC1CCCCC1 (stereo not drawn)

RP-LC retention time [s] | Compound
1040 | O=C(Cn1cccc(-c2nc(-c3ccc(Cl)cc3)no2)c1=O)N1CCCc2ccccc21
653 | COc1cccc(-c2nc(-c3ccc4c(c3)ncn4CCN3CCCC3)no2)c1
790 | O=C(c1ccc(Cl)s1)N1CCCC(CCc2nnc(C3CCOCC3)o2)C1 (stereo not drawn)
846 | CCCCS(=O)(=O)N1CCC(n2c(-c3ccc(OC)cc3)nc3cccnc32)C1 (stereo not drawn)
667 | CCCn1cnc2cc(-c3noc(CNC(=O)c4ccccc4)n3)ccc21
841 | COc1ccc(-c2cn3c(CC(=O)N(Cc4ccco4)C4CCCC4)csc3n2)cc1OC
640 | O=C(CC1CCN(C(=O)c2ccc3oc(C4CC4)nc3c2)CC1)NCC1CCCO1 (stereo not drawn)
671 | O=C(Cc1cccs1)N1CCCN(c2cc(-c3ccc4c(c3)OCO4)[nH]n2)CC1
1020 | COc1ccccc1N1CCN(S(=O)(=O)c2cc(-c3nnc(C4CCC4)o3)co2)CC1
766 | CC1(C(=O)NC2CCCCC2)Cn2c(ccc2-c2ccco2)C(=O)N1Cc1ccccn1 (stereo not drawn)
956 | CCc1nc2cc(-c3noc(Cc4ccc(OC)c(OC)c4)n3)ccc2o1
625 | O=C(c1ccco1)N1CCCCC1c1nc(C2CC2)n[nH]1 (stereo not drawn)
659 | COc1ccc(Nc2cc(C(=O)N3CCCC3)nc3ccc(C)cc23)cc1
808 | COc1ccc(-c2noc(C3CC(=O)N(c4ccc(F)cc4)C3)n2)cc1OC (stereo not drawn)
880 | CCn1ccc2cc(S(=O)(=O)N3CCC(C(=O)N4CCN(c5ncccn5)CC4)CC3)ccc21
1050 | O=C(CCn1nnc2cc(-c3noc(CCC4CCCC4)n3)ccc21)N1CCCC1

— the METLIN SMRT retention time set (Domingo-Almenara et al. 2019)
